Test results reported in ChEMBL document CHEMBL5230089, “Small-Molecule Fms-like Tyrosine Kinase 3 Inhibitors: An Attractive and Efficient Method for the Treatment of Acute Myeloid Leukemia” (J Med Chem, 2020).
Values belong to the compound of their own block, whether it stands above or below them.

Experiments:
MV4-11 [1] = assay: cells; details: Homo sapiens, MV4-11, 72 h
Description: Cytotoxicity against human MV4-11 cells assessed as cell viability incubated for 72 hrs by Cell titer-blue assay

[2] = target: Receptor-type tyrosine-protein kinase FLT3 (Homo sapiens, UniProt P36888); assay: Binding affinity to human FLT3 assessed as dissociation constant
[3] = target: Receptor-type tyrosine-protein kinase FLT3 (Homo sapiens, UniProt P36888, ITD)
MOLM-14 [4] = assay: Growth inhibition of human MOLM-14 cells incubated for 72 hrs by CCK-8 assay; assay type: functional
MV4-11 [5] = assay: Growth inhibition of human MV4-11 cells incubated for 72 hrs by CCK-8 assay; assay type: functional
MOLM-13 [6] = assay: Growth inhibition of human MOLM-13 cells incubated for 72 hrs by CCK-8 assay; assay type: functional
HL-60 = assay: Growth inhibition of human HL-60 cells incubated for 4 days by WST assay; assay type: functional; details: HL-60, 96 h, time 4 day
697 = assay: Cytotoxicity activity against human 697 cells assessed as reduction cell viability at 50 uM incubated for 48 hrs by ATP-glo assay; assay type: functional, cell-based; details: Homo sapiens, 697, 48 h
MOLM-14 [7] = assay: Cytotoxicity against human MOLM-14 cells assessed as reduction in cell viability incubated for 72 hrs; assay type: functional, cell-based; details: MOLM-14, 72 h
[8] = target: T1, Receptor-type tyrosine-protein kinase FLT3 (Homo sapiens, UniProt P36888); assay: Inhibition of FLT3 (unknown origin)
T1 sequence (P36888 whole entry): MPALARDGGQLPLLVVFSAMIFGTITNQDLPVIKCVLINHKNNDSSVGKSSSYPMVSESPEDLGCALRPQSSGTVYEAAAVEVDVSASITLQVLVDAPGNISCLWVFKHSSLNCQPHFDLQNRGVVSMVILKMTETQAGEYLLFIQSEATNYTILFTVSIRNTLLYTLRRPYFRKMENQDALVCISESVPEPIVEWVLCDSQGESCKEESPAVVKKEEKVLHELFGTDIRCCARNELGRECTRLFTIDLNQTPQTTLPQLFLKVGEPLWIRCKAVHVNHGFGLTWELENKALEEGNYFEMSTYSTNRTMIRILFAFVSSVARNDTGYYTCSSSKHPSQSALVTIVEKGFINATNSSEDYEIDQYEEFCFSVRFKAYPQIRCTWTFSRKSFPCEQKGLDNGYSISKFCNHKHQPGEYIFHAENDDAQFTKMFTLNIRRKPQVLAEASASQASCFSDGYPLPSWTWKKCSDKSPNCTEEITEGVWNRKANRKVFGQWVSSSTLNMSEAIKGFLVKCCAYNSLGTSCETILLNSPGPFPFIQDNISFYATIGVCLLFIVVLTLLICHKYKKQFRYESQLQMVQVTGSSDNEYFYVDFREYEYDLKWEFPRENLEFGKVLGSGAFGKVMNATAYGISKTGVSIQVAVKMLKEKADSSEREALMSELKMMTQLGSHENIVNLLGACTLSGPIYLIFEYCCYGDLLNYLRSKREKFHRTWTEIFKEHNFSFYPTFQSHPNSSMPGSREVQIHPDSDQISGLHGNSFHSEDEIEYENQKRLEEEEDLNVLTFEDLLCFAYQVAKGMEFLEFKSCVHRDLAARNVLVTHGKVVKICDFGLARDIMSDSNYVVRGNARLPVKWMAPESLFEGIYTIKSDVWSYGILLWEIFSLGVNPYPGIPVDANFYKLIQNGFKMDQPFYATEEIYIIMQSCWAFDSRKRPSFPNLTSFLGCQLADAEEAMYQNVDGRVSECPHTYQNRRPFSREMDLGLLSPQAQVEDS

MV4-11 [9] = assay: Growth inhibition of human MV4-11 cells assessed as reduction in cell viability at 50 uM measured after 72 hrs by CCK8 assay; assay type: functional
RS4-11 = assay: Growth inhibition human RS4-11 cell assessed as reduction in cell viability at 50 uM measured after 72 hrs by CCK8 assay; assay type: functional
MOLM-14 [10] = assay: cells; details: Homo sapiens, MOLM-14, 72 h
MV4-11 [11] = assay: cells; details: Homo sapiens, MV4-11, 48 h
Description: Antiproliferative activity against human MV4-11 cells assessed as reduction in cell viability after 48 hrs by Alamar Blue assay

BaF3 [12] = assay: cells; details: Mus musculus, BaF3, 72 h
BaF3 [13] = assay: cells; details: Mus musculus, BaF3, 72 h; remark: listed apart in the source
cells = details: Homo sapiens, TF cell, 72 h
BaF3 [14] = assay: Antiproliferative activity against mouse BaF3 FLT3-D835 cells assessed as reduction in cell viability measured after 72 hrs by MTS assay; assay type: functional, cell-based; details: BaF3, 72 h
MV4-11 [15] = assay: Antiproliferative activity against human MV4-11 cells assessed as reduction in cell proliferation measured after 24 hrs by MTT assay; assay type: functional, cell-based; details: MV4-11, 24 h
[16] = target: T1, Receptor-type tyrosine-protein kinase FLT3; assay: Inhibition of FLT3 (unknown origin) autophosphorylation expressed in human Leukemia cells; assay type: cell-based, Leukemia cell
MOLM-13 [17] = assay: Cytotoxicity activity against human MOLM-13 cells assessed as reduction in cell viability measured after 48 hrs; assay type: functional, cell-based; details: MOLM-13, 48 h
MV4-11 [18] = assay: Cytotoxicity activity against human MV4-11 cells assessed as reduction in cell viability measured after 48 hrs; assay type: functional, cell-based; details: MV4-11, 48 h

Structure (SMILES): CN(C)CC(=O)N1CCC[C@@H](n2nc(-c3ccc(Oc4ccccc4)cc3)c3c(N)ncnc32)C1
GI50 (MOLM-14 [4]): 42 nM
GI50 (MV4-11 [5]): 22 nM
GI50 (MOLM-13 [6]): 21 nM

Structure (SMILES): CCCCNc1ncc2c(-c3ccc(CN4CCN(C)CC4)cc3)cn([C@H]3CC[C@H](O)CC3)c2n1
IC50 697: 2.7 nM
IC50 (MOLM-14 [7]): 14 nM

Structure (SMILES): O=C(c1ccc(CN2CCCCC2)cc1)N1CCc2nc(-c3cc4cc(F)ccc4[nH]c3=O)[nH]c2C1
IC50 [8]: 0.57 nM
GI50 (MV4-11 [9]): 260 nM
GI50 (RS4-11): 4860 nM

Structure (SMILES): CCc1nc(C(N)=O)c(Nc2ccc(N3CCC(N4CCN(C)CC4)CC3)c(OC)c2)nc1NC1CCOCC1 [GILTERITINIB]
IC50 (MOLM-14 [10]): 1.8 nM
IC50 (cells): 1.4 nM
IC50 (BaF3 [14]): 0.7 nM

Structure (SMILES): CNC(=O)[C@@]1(N)C[C@H]2O[C@]1(C)n1c3ccccc3c3c4c(c5c6ccccc6n2c5c31)C(=O)NC4
IC50 (MV4-11 [15]): < 0.25 nM
IC50 [16]: 0.1 nM

Structure (SMILES): CC(=O)OC[C@H]1O[C@@H](N2N=C(C(F)(F)F)/C(=N\Nc3cccc(C(F)(F)F)c3)C2=O)[C@H](OC(C)=O)[C@@H](OC(C)=O)[C@@H]1OC(C)=O
IC50 (MOLM-13 [17]): 4040 nM
IC50 (MV4-11 [18]): 4700 nM

Other lines, results leading:

EC50 (MV4-11 [1]): 25 nM
Kd [2]: 3.6 nM
Structure (SMILES): CC(C)Nc1ccnc(Nc2cccc(-c3cccnc3)c2)n1

IC50 [3]: 71 nM
Structure (SMILES): Cc1cc2ncc(-c3ccc(NC(=O)Nc4cc(C(C)(C)C)on4)cc3)nc2cc1C

GI50 (MOLM-14 [4]): 1.5 nM
GI50 (MV4-11 [5]): 0.83 nM
GI50 (MOLM-13 [6]): 1.1 nM
Structure (SMILES): CCCNc1nc(Nc2ccc(C#N)cc2)ncc1C#CCCCNC(=O)[C@H](C)N(C)C(=O)/C=C/CN(C)C [FF-10101]

GI50 (MV4-11 [5]): 540 nM
GI50 (HL-60): 250 nM
Structure (SMILES): CNCCOc1ccc(-c2sc3nc(-c4cccs4)nc(NN4C(=O)C=C(C)C4=O)c3c2C)cc1

IC50 (MOLM-14 [10]): 0.72 nM
IC50 [3]: 6.5 nM
IC50 (MV4-11 [11]): 0.49 nM
Structure (SMILES): Cc1ccc(C(=O)Nc2ccc(CN3CCN(C)CC3)c(C(F)(F)F)c2)cc1C#Cc1c(N)ncc2ccc(Cl)cc12

IC50 (BaF3 [12]): 38.1 nM
IC50 (MOLM-14 [10]): 7.5 nM
IC50 (BaF3 [13]): 21.4 nM
IC50 (MV4-11 [11]): 3.5 nM
Structure (SMILES): CN1CCC(Nc2nc(Nc3ccc(Oc4ccccc4)cc3)c3c(=O)[nH]cc(Br)c3n2)CC1 [DENFIVONTINIB]

GI50 (MV4-11 [5]): < 0.3 nM
Structure (SMILES): CC(C)(C)c1cc(NC(=O)Nc2ccc(-n3nc(-c4ccc(OCCN5CCOCC5)cc4)c4c(N)ncnc43)cc2)no1
